Assay results published in patent US8816095B2, “Na channels, disease, and related assays and compositions” (Georgetown University, priority 2008, dated 2014).

Experiments:
CWR22rv-1 cells = experiment: CWR22rv-1 prostate cancer cell death (propidium iodide, FACS); assay type: cell-based, human
Protocol: CWR22Rv1 cells (ATCC, Manassas, Va.) were seeded in 6 well tissue culture plate at density of 300,000 cells/well and maintained in RPMI 1640 (Mediatech, Herndon, Va.) containing 10% fetal bovine serum, 2.5 mM L-glutamine, and penicillin-streptomycin (100 IU/ml and 100 μg/ml, respectively) at 37° C. with 5% CO2. Cells were then switched to serum free RPMI media overnight prior to drug treatment. Compounds were dissolved in 100% dimethylsulfoxide (DMSO) and diluted to the desired concentrations in serum free RPMI. Cells were treated with indicated drug concentrations (in triplicate per treatment point) for 24, 48, 72 hour. After treatment, cells were harvested by trypsinization and fixed in 70% ethanol. The fixed cells were then stained with propidium iodide (50 μg/ml) after treatment with RNase (5 μg/ml). The stained cells were analyzed for DNA content using FACSsort (Becton Dickinson). Cell cycle fractions were quantified with Cell Quest (Becton Dickinson) or ModFit LT (Verity Software House).

hERG potassium channels = target: T1, hERG potassium channels (Homo sapiens, UniProt Q12809); experiment: hERG binding assay ([35S]MK-499 displacement); details: [35S]MK-499, HEK-293 hERG membranes
T1 construct: expressed in transfected cells; host or cells: HEK-293 (membranes)
T1 sequence (Q12809 whole entry): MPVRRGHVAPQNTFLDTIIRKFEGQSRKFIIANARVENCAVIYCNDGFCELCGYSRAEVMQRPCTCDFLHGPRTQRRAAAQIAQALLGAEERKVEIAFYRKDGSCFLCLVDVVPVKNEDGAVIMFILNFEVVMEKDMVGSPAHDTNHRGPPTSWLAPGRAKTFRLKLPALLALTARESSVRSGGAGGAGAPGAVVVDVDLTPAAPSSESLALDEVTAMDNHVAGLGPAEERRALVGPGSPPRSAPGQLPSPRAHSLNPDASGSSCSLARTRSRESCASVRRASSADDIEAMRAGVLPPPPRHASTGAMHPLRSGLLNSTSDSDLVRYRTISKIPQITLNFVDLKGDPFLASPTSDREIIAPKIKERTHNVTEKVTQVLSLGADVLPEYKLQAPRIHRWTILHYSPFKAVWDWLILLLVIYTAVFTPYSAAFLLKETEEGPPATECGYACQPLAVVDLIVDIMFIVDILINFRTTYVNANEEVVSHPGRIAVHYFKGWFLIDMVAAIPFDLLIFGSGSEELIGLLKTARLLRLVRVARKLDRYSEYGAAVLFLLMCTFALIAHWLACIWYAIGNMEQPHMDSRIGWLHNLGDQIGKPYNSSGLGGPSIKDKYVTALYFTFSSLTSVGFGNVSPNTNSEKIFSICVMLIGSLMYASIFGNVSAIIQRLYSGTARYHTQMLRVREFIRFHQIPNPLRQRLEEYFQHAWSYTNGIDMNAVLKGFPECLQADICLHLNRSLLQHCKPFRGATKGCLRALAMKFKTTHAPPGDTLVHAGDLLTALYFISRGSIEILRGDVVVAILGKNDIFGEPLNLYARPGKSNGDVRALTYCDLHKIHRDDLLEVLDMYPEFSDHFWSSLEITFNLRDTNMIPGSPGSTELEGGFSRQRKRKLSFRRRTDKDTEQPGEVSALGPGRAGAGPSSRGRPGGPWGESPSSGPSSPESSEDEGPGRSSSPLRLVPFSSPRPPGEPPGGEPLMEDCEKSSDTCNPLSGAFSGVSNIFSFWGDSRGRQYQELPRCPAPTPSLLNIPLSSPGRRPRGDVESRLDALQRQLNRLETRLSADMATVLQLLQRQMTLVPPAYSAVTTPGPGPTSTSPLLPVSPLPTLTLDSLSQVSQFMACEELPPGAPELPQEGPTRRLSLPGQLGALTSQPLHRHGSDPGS
From the text: All four compounds were also counter-screened for human ether-a-go-go-related gene (hERG) activity against the radio-ligand MK-0499. Blockade of hERG K^+ channels is widely regarded as the predominant cause of drug-induced QT prolongation. (Aronov, A J Med Chem. 2006 Nov. 16; 49(23):6917-21).
MK-499, a potent hERG blocker, was used in a ligand binding assay to evaluate the binding of test compounds to hERG potassium channels as previously described (Wang, J et al. Am J Physiol Heart Circ Physiol, 2003, 284: H256-H267).^2 Test compounds were incubated with 0.05 nM of radiolabeled MK-499 ([35S]MK-499; specific Activity=1,279,010 μCi/μmol) in an assay buffer solution (70 mM NaCl, 60 mM KCl, 10 mM HEPES/NaOH (pH 7.4), 2 mM MgCl2, 1 mM CaCl2) also containing membranes isolated from HEK-293 cells stably expressing hERG channels in 96 well polypropylene deep-well assay plates at room temperature (25° C.) for >90 min. Assay plates were rinsed three time with buffer (130 mM NaCl, 10 mM HEPES/NaOH (pH 7.4), 2 mM MgCl2, 1 mM CaCl2) and the solution transferred to a Packard FilterMate Universal Harvester apparatus and filtered using PerkinElmer UniFilter-96 GF/C 96-well white microplates pre-soaked with 0.3% BSA (10 mL/L of 30% BSA). Plates were dried overnight at 37° C., or for 2 hrs at 56° C. The bottom of the plates were sealed and 0.025 mL of Microscint 0 was added to each well. The plates were top sealed and counted for 2 min/well in a Packard TopCount Scintillation counter. Test compounds were evaluated in a five point titration format using half-log steps from 0.3 μM to 30 μM. […] Less than 5% of the added radioactivity was retained on the filters. Assays were performed in triplicate.

hNav1.7 = target: T2, hNav1.7 (Homo sapiens, UniProt Q15858); experiment: Fluorescent (FRET) based sodium channel assay, hNav1.7; assay type: cell-based; details: HEK293 stably transfected with hNav1.7, 20 μM veratridine, read-out: hNav 1.7 IC50
T2 construct: expressed in transfected cells; host or cells: HEK293
T2 sequence (Q15858 whole entry): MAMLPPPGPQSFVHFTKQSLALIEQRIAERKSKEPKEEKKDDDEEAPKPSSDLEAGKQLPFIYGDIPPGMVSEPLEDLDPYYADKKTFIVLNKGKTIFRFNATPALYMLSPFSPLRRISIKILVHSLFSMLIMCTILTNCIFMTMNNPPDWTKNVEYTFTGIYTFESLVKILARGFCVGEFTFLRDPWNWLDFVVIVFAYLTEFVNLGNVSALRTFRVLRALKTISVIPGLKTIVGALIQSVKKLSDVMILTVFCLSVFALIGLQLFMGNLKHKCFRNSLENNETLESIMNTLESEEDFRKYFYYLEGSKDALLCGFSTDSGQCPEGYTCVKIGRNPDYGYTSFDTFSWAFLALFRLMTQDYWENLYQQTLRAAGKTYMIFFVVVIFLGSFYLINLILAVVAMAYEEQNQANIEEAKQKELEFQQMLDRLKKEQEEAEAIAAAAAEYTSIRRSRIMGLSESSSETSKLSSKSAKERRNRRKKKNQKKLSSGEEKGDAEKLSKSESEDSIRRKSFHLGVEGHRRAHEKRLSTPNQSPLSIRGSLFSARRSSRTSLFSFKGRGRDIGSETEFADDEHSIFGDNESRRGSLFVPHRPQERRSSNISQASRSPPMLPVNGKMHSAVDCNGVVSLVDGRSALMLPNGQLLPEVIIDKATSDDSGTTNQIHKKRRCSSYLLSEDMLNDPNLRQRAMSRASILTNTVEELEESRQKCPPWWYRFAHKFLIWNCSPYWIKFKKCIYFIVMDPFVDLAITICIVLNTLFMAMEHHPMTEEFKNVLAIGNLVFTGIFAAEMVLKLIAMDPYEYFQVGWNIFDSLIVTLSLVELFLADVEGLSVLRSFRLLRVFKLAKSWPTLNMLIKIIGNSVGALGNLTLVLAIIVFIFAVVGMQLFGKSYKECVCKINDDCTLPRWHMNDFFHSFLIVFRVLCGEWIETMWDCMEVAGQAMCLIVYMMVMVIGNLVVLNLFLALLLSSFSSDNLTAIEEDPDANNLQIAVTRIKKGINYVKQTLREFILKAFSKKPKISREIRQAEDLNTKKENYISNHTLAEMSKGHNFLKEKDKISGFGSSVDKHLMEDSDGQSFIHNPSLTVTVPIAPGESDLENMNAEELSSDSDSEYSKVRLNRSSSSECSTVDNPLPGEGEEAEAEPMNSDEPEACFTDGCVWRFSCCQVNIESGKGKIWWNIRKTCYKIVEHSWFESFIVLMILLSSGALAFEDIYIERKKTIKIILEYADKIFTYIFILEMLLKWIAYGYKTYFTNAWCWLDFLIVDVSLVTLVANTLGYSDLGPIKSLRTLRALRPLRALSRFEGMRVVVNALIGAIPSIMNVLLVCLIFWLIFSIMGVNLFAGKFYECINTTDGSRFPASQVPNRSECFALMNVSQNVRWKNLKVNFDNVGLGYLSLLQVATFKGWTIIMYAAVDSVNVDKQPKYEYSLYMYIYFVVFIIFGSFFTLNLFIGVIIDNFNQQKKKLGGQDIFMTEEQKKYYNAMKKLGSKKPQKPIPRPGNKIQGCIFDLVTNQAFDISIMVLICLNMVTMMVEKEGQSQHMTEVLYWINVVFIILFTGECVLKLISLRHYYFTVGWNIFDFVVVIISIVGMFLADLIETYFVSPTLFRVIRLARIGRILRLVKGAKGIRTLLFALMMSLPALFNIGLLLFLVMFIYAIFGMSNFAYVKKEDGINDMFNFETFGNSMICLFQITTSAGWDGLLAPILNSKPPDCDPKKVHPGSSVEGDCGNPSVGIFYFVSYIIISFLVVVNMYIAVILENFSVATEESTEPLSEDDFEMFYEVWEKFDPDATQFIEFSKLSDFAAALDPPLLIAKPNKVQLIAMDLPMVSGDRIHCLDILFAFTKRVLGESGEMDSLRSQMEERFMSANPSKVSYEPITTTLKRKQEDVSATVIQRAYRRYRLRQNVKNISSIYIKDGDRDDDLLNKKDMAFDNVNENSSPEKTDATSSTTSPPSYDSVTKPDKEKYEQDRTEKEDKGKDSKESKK
Protocol: Two isoforms of the channel were examined: hNav1.5, a cardiac sodium channel associated with arrhythmias, and hNav1.7, an isoform found in the peripheral nervous system.
HEK293 cells stably transfected with either hNav1.5 or hNav1.7 were plated at approximately 11,000-20,000 cells/well in flat bottom, poly-D-lysine coated black-wall, clear-bottom, 384-well plates (Becton Dickinson, Bedford, Mass.), and incubated overnight at 37° C. in a 10% CO2 atmosphere in growth medium. Cells were washed with 0.03 mL of Dulbecco's phosphate buffered saline (D-PBS) containing calcium and magnesium. Cells were then incubated with 0.025 mL of a solution containing 10 μM CC2-DMPE and 0.02% pluronic acid in D-PBS with calcium and magnesium; supplemented with 10 mM glucose, and 10 mM Hepes-NaOH, pH 7.4. […] Afterwards, cells were incubated in the dark at 25° C. for 45 min with 0.025 mL of a solution containing 5 μM DiSBAC2(3) in VIPR-S, in the absence or presence of test compound. At the end of the incubation period, the plate was placed in a FLIPR TETRA instrument (MDS Analytical Technologies, Sunnyvale Calif.), illuminated at 390-420 nm, and fluorescence emissions were recorded at approximately 1 Hz at 460 and 580 nm. Following a 7 second baseline reading, 0.025 mL of VIPR-S containing 10 μM veratridine for Nav1.5 or 20 μM veratridine for Nav1.7 was added to each well, and the emissions of both dyes were recorded for an additional 33 seconds. The change in fluorescence resonance energy transfer (FRET) ratio (F/F0) was calculated as: F/F0=((A460/A580/(I460/I580) where A and I represent the readings after or before addition of veratridine, respectively, at the indicated wavelengths. For I, the readings from 2-5 seconds were averaged, and for A, readings from 3 seconds after the signal had reached a plateau level (usually within 30-40 s) were also averaged. Triplicate measurements were performed for each experimental condition and the data were averaged.

[1] = target: T3, human Nav channel isoform, Nav1.2 (Homo sapiens, UniProt Q99250); experiment: Patch clamp electrophysiology of compound 1 on Nav1.2 in HEK 293; assay type: cell-based; details: HEK293, HEK 293 Nav1.2, holding −60 mV to +10 mV, read-out: inhibition of Nav channel current
T3 construct: expressed in transfected cells; host or cells: HEK 293
T3 sequence (Q99250 whole entry, canonical isoform): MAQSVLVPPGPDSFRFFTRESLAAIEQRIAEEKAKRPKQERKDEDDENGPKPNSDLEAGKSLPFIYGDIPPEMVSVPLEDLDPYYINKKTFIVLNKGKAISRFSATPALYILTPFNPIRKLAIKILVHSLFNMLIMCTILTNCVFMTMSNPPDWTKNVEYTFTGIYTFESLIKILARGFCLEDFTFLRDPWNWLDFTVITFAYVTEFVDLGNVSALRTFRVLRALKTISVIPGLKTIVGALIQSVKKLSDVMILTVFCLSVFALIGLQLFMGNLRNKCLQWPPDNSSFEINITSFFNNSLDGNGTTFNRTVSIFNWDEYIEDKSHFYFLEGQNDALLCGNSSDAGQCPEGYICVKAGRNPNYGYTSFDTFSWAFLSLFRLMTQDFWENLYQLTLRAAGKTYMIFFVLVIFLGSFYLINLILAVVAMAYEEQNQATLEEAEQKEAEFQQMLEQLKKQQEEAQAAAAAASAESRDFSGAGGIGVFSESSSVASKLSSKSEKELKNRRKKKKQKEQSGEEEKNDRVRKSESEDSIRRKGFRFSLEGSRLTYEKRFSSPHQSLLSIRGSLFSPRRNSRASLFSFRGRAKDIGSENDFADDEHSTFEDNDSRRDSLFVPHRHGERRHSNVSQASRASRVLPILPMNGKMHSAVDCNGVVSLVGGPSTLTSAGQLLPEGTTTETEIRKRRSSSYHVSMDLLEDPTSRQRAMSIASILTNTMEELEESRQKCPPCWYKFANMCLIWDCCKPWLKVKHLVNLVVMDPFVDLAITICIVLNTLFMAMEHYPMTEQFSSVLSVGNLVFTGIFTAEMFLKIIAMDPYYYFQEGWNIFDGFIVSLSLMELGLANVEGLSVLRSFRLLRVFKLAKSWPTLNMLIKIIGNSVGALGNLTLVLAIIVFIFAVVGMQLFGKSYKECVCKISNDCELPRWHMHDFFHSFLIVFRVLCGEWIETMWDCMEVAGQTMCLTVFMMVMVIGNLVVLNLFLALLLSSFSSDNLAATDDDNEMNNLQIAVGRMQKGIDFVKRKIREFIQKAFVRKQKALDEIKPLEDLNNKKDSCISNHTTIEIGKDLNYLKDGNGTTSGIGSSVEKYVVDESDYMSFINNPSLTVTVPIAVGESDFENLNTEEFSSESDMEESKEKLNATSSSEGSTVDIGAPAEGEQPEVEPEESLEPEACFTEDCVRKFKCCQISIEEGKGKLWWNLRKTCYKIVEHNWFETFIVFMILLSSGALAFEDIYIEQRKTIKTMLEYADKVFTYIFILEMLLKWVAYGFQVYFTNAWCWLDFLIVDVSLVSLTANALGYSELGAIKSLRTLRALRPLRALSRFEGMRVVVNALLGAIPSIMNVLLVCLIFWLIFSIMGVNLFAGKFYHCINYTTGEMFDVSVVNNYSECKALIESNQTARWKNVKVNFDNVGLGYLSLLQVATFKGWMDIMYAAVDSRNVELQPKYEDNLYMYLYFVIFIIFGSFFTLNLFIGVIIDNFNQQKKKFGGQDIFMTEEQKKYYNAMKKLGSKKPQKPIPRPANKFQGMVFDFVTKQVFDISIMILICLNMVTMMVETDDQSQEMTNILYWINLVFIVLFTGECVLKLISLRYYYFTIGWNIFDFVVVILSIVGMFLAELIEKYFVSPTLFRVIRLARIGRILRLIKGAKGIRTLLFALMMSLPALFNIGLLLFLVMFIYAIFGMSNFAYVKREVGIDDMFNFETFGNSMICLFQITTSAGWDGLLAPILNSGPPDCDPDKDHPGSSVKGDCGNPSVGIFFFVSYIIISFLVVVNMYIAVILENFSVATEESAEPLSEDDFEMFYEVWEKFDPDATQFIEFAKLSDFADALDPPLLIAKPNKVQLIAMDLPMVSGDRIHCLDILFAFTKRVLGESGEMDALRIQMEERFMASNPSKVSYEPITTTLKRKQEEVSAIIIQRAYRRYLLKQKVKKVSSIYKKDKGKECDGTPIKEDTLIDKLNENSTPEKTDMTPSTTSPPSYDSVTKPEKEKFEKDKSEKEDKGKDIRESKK
Protocol: The effects of the racemic mixture and enantiomers of compound 1 were also examined by patch clamp electrophysiology on the human Nav channel isoform, Nav1.2, stably expressed in human embryonic kidney cells (HEK 293). Nav currents were elicited by step depolarizations from a holding potential of −60 mV to +10 mV for 25 ms at 15 s intervals. Sodium currents were record during a control drug free condition, after 5 mins of drug perfusion and following washout. […] The racemic mixture inhibited the sodium channel current by 31.9±2.9% (n=3) at 1 μM and by 87.0±3.1% (n=3) at 10 μM (FIG. 14). All drug effects were fully reversible on washout.
Sodium currents were recorded using the whole-cell configuration of the patch clamp recording technique with an Axopatch 200 amplifier (Axon Instruments, Foster City, Calif.). All voltage protocols were applied using pCLAMP 9 software (Axon, USA) and a Digidata 1322A (Axon, USA). Currents were amplified and low pass filtered (2 kHz) and sampled at 33 kHz. Borosilicate glass pipettes were pulled using a Brown-Flaming puller (model P87, Sutter Instruments Co, Novato, Calif.) and heat polished to produce electrode resistances of 1.5-3.0 MΩ when filled with the following electrode solution (in mM); CsCl 130, MgCl2 1, MgATP 5, BAPTA 10, HEPES 5 (pH adjusted to 7.4 with CsOH). Cells were plated on glass coverslips and superfused with solution containing the following composition; (in mM) NaCl 130, KCl 4, CaCl2 1, MgCl2 5, HEPES 5, and glucose 5 (pH adjusted to 7.4 with NaOH). Compounds were prepared as 100 mM stock solutions in dimethyl sulfoxide (DMSO) and diluted to desired concentration (1 μM or 10 μM) in perfusion solution. All experiments were performed at room temperature (20-22° C.). After establishing whole-cell, a minimum series resistance compensation of 75% was applied and cells were held at −100 mV for 5 minutes to account for equilibrium gating shifts. Sodium currents were evoked by stepping to +10 mV from a holding potential of −60 mV for 25 ms at 15 s intervals. After control recordings, test compounds were applied for five minutes to allow for bath equilibration. Tonic block was assessed by comparing peak sodium current in drug free conditions to peak current when drug was present. Data analysis was performed using Clampfit software (v9, Axon Instruments, CA, USA) and Origin (v6, Microcal Software, MA, USA).

human prostate tissue = experiment: Staining of human prostate paraffin embedded tissue slices; details: 100 μM
Protocol: The binding and localization of compound 26 in prostate and prostate cancer tissue was studied. Human prostate paraffin embedded tissue slices were stained with 100 μM of compound 26 and dansyl amine.

CCCCCCC[C@](O)(C(N)=O)c1cccc(Cl)c1 [Compound (R)-(−)-1, (R)-(−)-2-(3-chloro-phenyl)-2-hydroxy-nonanoic acid amide]
cell death of CWR22rv-1 cells (CWR22rv-1 cells; 25 μM, after 24 h): approximately 25%
cell death of CWR22rv-1 cells (CWR22rv-1 cells; after 72 h): 60%
% inhibition for hERG assay, 0.3 μM (hERG potassium channels): 16%
% inhibition for hERG assay, 1 μM (hERG potassium channels): 26%
% inhibition for hERG assay, 3 μM (hERG potassium channels): 20%
% inhibition for hERG assay, 10 μM (hERG potassium channels): 57%
% inhibition for hERG assay, 30 μM (hERG potassium channels): 90%
IC50 (hNav1.7): 1880 nM
inhibition at 1 µM [1]: 67.4 ± 5.3%
inhibition at 10 µM [1]: 94.3 ± 0.6%

CCCCCCC[C@@](O)(C(N)=O)c1cccc(Cl)c1 [Compound (S)-(+)-1, (S)-(+)-2-(3-chloro-phenyl)-2-hydroxy-nonanoic acid amide]
cell death of CWR22rv-1 cells (CWR22rv-1 cells; 25 μM, after 24 h): marginal effects
cell death of CWR22rv-1 cells (CWR22rv-1 cells; after 72 h): 40%
% inhibition for hERG assay, 0.3 μM (hERG potassium channels): 10%
% inhibition for hERG assay, 1 μM (hERG potassium channels): 25%
% inhibition for hERG assay, 3 μM (hERG potassium channels): 33%
% inhibition for hERG assay, 10 μM (hERG potassium channels): 65%
% inhibition for hERG assay, 30 μM (hERG potassium channels): 90%
IC50 (hNav1.7): 2620 nM
inhibition at 1 µM [1]: 34.9 ± 2.3%
inhibition at 10 µM [1]: 91.5 ± 0.5%

CN(C)c1cccc2c(S(N)(=O)=O)cccc12 [dansyl amine, reference compound]
binding to human prostate tissue (microscopy) (human prostate tissue): does not bind
